The results in this text go back to patent US10377753B2, “Substituted 4-azaindoles and their use as GluN2B receptor modulators” (Janssen Pharmaceutica NV, priority 2015, dated 2019).

This assay deals with cloned human NR1/NR2B ion channels (Homo sapiens (Human), UniProt Q05586+Q13224). The experiment in a line: HNR2BC: effects of test articles on cloned human NR1/NR2B ion channels expressed in mammalian cells (FLIPR calcium flux). The assay is classed as cell-based. Particulars: cloned human NR1/NR2B, Table 5. As to the method: HNR2BC: Effects of Test Articles on Cloned Human NR1/NR2B Ion Channels Expressed in Mammalian Cells
Chain of cloned human NR1/NR2B ion channels (Q13224 27-1484, other chains not shown): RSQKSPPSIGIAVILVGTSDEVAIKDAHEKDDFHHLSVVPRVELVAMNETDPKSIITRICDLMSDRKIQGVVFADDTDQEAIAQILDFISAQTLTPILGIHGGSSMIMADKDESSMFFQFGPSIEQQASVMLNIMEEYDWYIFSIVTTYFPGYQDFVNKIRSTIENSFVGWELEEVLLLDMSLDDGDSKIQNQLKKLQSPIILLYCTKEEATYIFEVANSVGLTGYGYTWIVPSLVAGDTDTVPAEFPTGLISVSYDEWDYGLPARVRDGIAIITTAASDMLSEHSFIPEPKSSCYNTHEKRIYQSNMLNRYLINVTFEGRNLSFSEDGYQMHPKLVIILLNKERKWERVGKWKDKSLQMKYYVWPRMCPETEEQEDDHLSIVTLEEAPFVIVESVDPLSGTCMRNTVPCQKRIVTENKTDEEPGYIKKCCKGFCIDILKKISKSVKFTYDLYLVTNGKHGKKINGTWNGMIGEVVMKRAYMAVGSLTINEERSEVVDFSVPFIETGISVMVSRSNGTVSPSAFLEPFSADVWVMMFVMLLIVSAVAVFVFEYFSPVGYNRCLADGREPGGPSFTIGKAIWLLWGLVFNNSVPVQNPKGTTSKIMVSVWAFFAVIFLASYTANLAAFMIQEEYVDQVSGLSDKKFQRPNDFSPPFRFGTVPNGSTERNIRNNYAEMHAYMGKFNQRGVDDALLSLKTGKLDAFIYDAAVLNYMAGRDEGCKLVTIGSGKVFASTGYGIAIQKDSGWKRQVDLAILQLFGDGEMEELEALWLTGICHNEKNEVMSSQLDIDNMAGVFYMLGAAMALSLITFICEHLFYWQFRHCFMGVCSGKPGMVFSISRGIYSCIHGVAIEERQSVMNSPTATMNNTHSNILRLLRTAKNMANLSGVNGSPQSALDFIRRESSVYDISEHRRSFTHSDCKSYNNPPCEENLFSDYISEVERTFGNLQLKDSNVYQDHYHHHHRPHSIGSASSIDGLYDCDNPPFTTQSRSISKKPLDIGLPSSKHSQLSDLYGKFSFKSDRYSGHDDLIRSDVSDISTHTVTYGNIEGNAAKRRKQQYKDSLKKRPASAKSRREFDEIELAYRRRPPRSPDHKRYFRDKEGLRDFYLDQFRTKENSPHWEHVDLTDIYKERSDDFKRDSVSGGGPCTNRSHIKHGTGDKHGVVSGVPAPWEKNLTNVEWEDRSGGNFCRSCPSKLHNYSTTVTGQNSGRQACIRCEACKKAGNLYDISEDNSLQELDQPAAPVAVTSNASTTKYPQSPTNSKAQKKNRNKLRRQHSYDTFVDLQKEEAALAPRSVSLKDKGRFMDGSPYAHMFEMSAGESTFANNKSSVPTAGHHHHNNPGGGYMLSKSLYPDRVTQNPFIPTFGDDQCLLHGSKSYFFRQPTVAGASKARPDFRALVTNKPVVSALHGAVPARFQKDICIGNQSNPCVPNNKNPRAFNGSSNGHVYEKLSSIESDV
NMDA receptors are ion channels that are highly permeable to Ca^2+ ions, rendering it possible to monitor NMDA receptor function using cell-based calcium flux assay. In this assay, co-agonists glutamate and glycine are added to cells heterologously expressing human GluN1/GluN2B NMDA receptors to initiate cellular Ca^2+ influx. The time course of the changes in intracellular calcium is measured using a fluorescent dye and a FLIPR (Fluorometric Imaging Plate Reader) device.
Twenty four hours before measurements, the expression of the NMDA receptors in the stable cell line is induced with Tet-On inducible system in the presence of a non-selective NMDA receptor blocker. On the day of the experiment, cell culture media is carefully washed and the cells are loaded with Calcium 5 Dye Kit (Molecular Devices) in dye loading buffer containing 137 mM NaCl, 4 mM KCl, 2 mM CaCl2, 0.5 mM MgCl2, 10 mM HEPES and 5 mM D-glucose; pH 7.4. After 1 h incubation at the room temperature, the dye is washed away with the assay buffer (137 mM NaCl, 4 mM KCl, 2 mM CaCl2, 0.01 mM EDTA, 10 mM HEPES and 5 mM D-glucose; pH 7.4) In the FLIPR TETRA reader, various concentrations of the test compounds are added to the cells for 5 min while fluorescence is monitored to detect potential agonist activity. Next, co-agonists, glutamate and glycine are added for another 5 minutes. The concentration of glutamate corresponding to ˜EC80 is used to maximize the assay's signal window and ability to detect NMDA receptor antagonists and negative allosteric modulators. A saturating concentration (10 μM) of glycine is also present in the assay. […] The fluorescent signal in the presence of test compounds is quantified and normalized to the signal defined by the appropriate control wells.
Usually IC50 stands for the concentration at which inhibition is half-maximal. For the compound `O=C(Cn1cc(Br)c2ncc(-c3ccc(F)cc3)cc21)N1CCC1` [Example 18, 1-(Azetidin-1-yl)-2-[3-bromo-6-(4-fluorophenyl)pyrrolo[3,2-b]pyridin-1-yl]ethanone], the IC50 was 20 nM.
For the compound `O=C(Cn1cc(Br)c2ncc(-c3ccc(F)cc3)cc21)N1CCCC1` [Example 19, 2-[3-Bromo-6-(4-fluorophenyl)pyrrolo[3,2-b]pyridin-1-yl]-1-pyrrolidin-1-yl-ethanone], the IC50 is 31.6 nM.
Turning to `O=C(Cn1cc(Br)c2ncc(-c3ccc(F)cc3)cc21)N1CCOCC1` [Example 20, 2-[3-Bromo-6-(4-fluorophenyl)pyrrolo[3,2-b]pyridin-1-yl]-1-morpholino-ethanone], the IC50 is 50.1 nM.
Same read-out and setting: next, `Cc1cccc(-c2cnc3c(Br)cn(CC(=O)NC4CC4)c3c2)c1` [Example 21, 2-[3-Bromo-6-(m-tolyl)pyrrolo[3,2-b]pyridin-1-yl]-N-cyclopropyl-acetamide]: 39.8 nM.
Same read-out and setting: the figure for `Cc1cccc(-c2cnc3c(Br)cn(CC(=O)N4CCC4)c3c2)c1` [Example 22, 1-(Azetidin-1-yl)-2-[3-bromo-6-(m-tolyl)pyrrolo[3,2-b]pyridin-1-yl]ethanone] is 25.1 nM.
The same measure, in the same setting: the figure for `Cc1cccc(-c2cnc3c(Br)cn(CC(=O)N4CCCC4)c3c2)c1` [Example 23, 2-[3-Bromo-6-(m-tolyl)pyrrolo[3,2-b]pyridin-1-yl]-1-pyrrolidin-1-yl-ethanone] is 50.1 nM.
As for `Cc1cccc(-c2cnc3c(Br)cn(CC(=O)N4CCOCC4)c3c2)c1` [Example 24, 2-[3-Bromo-6-(m-tolyl)pyrrolo[3,2-b]pyridin-1-yl]-1-morpholino-ethanone], the IC50 is 100 nM.
Same read-out and setting: next, `Cc1cc(-c2cnc3c(Cl)cn(CC(=O)N4CC(F)(F)C4)c3c2)ccc1F` [Example 25, 2-[3-Chloro-6-(4-fluoro-3-methyl-phenyl)pyrrolo[3,2-b]pyridin-1-yl]-1-(3,3-difluoroazetidin-1-yl)ethanone]: 79.4 nM.
For `Cc1cc(-c2cnc3c(Cl)cn(CC(=O)N4CC(F)C4)c3c2)ccc1F` [Example 26, 2-[3-Chloro-6-(4-fluoro-3-methyl-phenyl)pyrrolo[3,2-b]pyridin-1-yl]-1-(3-fluoroazetidin-1-yl)ethanone], the IC50 is 39.8 nM.
On the same count and under the same terms, next, `Cc1cn(CC(=O)N2CCCC2)c2cc(-c3ccc(F)cc3)cnc12` [Example 27, 2-[6-(4-Fluorophenyl)-3-methyl-pyrrolo[3,2-b]pyridin-1-yl]-1-pyrrolidin-1-yl-ethanone]: 50.1 nM; `Cc1cn(CC(=O)N2CCOCC2)c2cc(-c3ccc(F)cc3)cnc12` [Example 28, 2-[6-(4-Fluorophenyl)-3-methyl-pyrrolo[3,2-b]pyridin-1-yl]-1-morpholino-ethanone]: 200 nM.
The same measure, in the same setting: the figure for `O=C(Cn1cc(Cl)c2ncc(-c3ccc(F)c(F)c3)cc21)N1CCC1` [Example 29, 1-(Azetidin-1-yl)-2-[3-chloro-6-(3,4-difluorophenyl)pyrrolo[3,2-b]pyridin-1-yl]ethanone] is 20 nM; for `O=C(Cn1cc(Cl)c2ncc(-c3ccc(F)c(F)c3)cc21)N1CC(F)C1` [Example 30, 2-[3-Chloro-6-(3,4-difluorophenyl)pyrrolo[3,2-b]pyridin-1-yl]-1-(3-fluoroazetidin-1-yl)ethanone] it is 20 nM.
The same measure, in the same setting: next, `Cc1cc2ncc(-c3ccc(F)cc3)cc2n1CC(=O)N1CCOCC1` [Example 31, 2-[6-(4-Fluorophenyl)-2-methyl-pyrrolo[3,2-b]pyridin-1-yl]-1-morpholino-ethanone]: 3160 nM; `Cc1cn(CC(=O)NC2CC2)c2cc(-c3ccc(F)cc3)cnc12` [Example 32, N-Cyclopropyl-2-[6-(4-fluorophenyl)-3-methyl-pyrrolo[3,2-b]pyridin-1-yl]acetamide]: 398 nM; `Cc1cn(CC(=O)N2CCC2)c2cc(-c3ccc(F)cc3)cnc12` [Example 33, 1-(Azetidin-1-yl)-2-[6-(4-fluorophenyl)-3-methyl-pyrrolo[3,2-b]pyridin-1-yl]ethanone]: 63.1 nM.
A word on the pIC50: it is the negative decadic logarithm of the IC50, by convention in mol/L. As for `O=C(Cn1cc(Cl)c2ncc(-c3ccc(F)c(F)c3)cc21)N1CC(F)(F)C1` [Example 34, 2-[3-Chloro-6-(3,4-difluorophenyl)pyrrolo[3,2-b]pyridin-1-yl]-1-(3,3-difluoroazetidin-1-yl)ethanone], the pIC50 amounted to 7.8.
As for `O=C(Cn1cc(Cl)c2ncc(-c3ccc(F)c(C(F)(F)F)c3)cc21)N1CC(F)C1` [Example 35, 2-[3-Chloro-6-[4-fluoro-3-(trifluoromethyl)phenyl]pyrrolo[3,2-b]pyridin-1-yl]-1-(3-fluoroazetidin-1-yl)ethanone], the half-maximal inhibitory concentration (IC50) was 200 nM.
With `O=C(Cn1cc(Cl)c2ncc(-c3cccc(C(F)(F)F)c3)cc21)N1CC(F)(F)C1` [Example 36, 2-[3-Chloro-6-[3-(trifluoromethyl)phenyl]pyrrolo[3,2-b]pyridin-1-yl]-1-(3,3-difluoroazetidin-1-yl)ethanone], the IC50 was 100 nM.
The same measure, in the same setting: the figure for `Cc1cc2ncc(-c3ccc(F)cc3)cc2n1CC(=O)N1CCCC1` [Example 37, 2-[6-(4-Fluorophenyl)-2-methyl-pyrrolo[3,2-b]pyridin-1-yl]-1-pyrrolidin-1-yl-ethanone] is 1000 nM; for `Cc1cc2ncc(-c3ccc(F)cc3)cc2n1CC(=O)NC1CC1` [Example 38, N-Cyclopropyl-2-[6-(4-fluorophenyl)-2-methyl-pyrrolo[3,2-b]pyridin-1-yl]acetamide] it is 5010 nM.
Still for that read-out and setting: the figure for `O=C(Cn1cc(Cl)c2ncc(-c3cc(F)c(F)c(F)c3)cc21)N1CC(F)C1` [Example 39, 2-[3-Chloro-6-(3,4,5-trifluorophenyl)pyrrolo[3,2-b]pyridin-1-yl]-1-(3-fluoroazetidin-1-yl)ethanone] is 31.6 nM; for `O=C(Cn1cc(Cl)c2ncc(-c3ccc(F)c(C(F)(F)F)c3)cc21)N1CC(F)(F)C1` [Example 40, 2-[3-Chloro-6-[4-fluoro-3-(trifluoromethyl)phenyl]pyrrolo[3,2-b]pyridin-1-yl]-1-(3,3-difluoroazetidin-1-yl)ethanone] it is 501 nM; for `Cc1cccc(-c2cnc3cc(C)n(CC(=O)N4CCC4)c3c2)c1` [Example 41, 1-(Azetidin-1-yl)-2-[2-methyl-6-(m-tolyl)pyrrolo[3,2-b]pyridin-1-yl]ethanone] it is 25.1 nM.
For the compound `Cc1cc2ncc(-c3ccccc3)cc2n1CC(=O)N1CCCC1` [Example 42, 2-(2-Methyl-6-phenyl-pyrrolo[3,2-b]pyridin-1-yl)-1-pyrrolidin-1-yl-ethanone], the IC50 was 2510 nM.
On the same count and under the same terms, next, `Cc1cccc(-c2cnc3cc(C)n(CC(=O)N4CCCC4)c3c2)c1` [Example 44, 2-[2-Methyl-6-(m-tolyl)pyrrolo[3,2-b]pyridin-1-yl]-1-pyrrolidin-1-yl-ethanone]: 200 nM; `Cc1cccc(-c2cnc3cc(C)n(CC(=O)N4CCOCC4)c3c2)c1` [Example 45, 2-[2-Methyl-6-(m-tolyl)pyrrolo[3,2-b]pyridin-1-yl]-1-morpholino-ethanone]: 501 nM; `Cc1cc2ncc(-c3ccc(F)cc3)cc2n1CC(=O)N1CCC1` [Example 46, 1-(Azetidin-1-yl)-2-[6-(4-fluorophenyl)-2-methyl-pyrrolo[3,2-b]pyridin-1-yl]ethanone]: 501 nM.
As to `Cc1cc2ncc(-c3ccccc3)cc2n1CC(=O)N1CCC1` [Example 47, 1-(Azetidin-1-yl)-2-(2-methyl-6-phenyl-pyrrolo[3,2-b]pyridin-1-yl)ethanone], the IC50 is 79.4 nM.
On the same count and under the same terms, next, `O=C(Cn1cc(Cl)c2ncc(-c3cccc(C(F)(F)F)c3)cc21)N1CC(F)C1` [Example 48, 2-[3-Chloro-6-[3-(trifluoromethyl)phenyl]pyrrolo[3,2-b]pyridin-1-yl]-1-(3-fluoroazetidin-1-yl)ethanone]: 631 nM; `O=C(Cn1cc(Cl)c2ncc(-c3cc(F)c(F)c(F)c3)cc21)N1CC(F)(F)C1` [Example 49, 2-[3-Chloro-6-(3,4,5-trifluorophenyl)pyrrolo[3,2-b]pyridin-1-yl]-1-(3,3-difluoroazetidin-1-yl)ethanone]: 200 nM.
For `O=C(Cn1cc(Cl)c2ncc(-c3ccc(F)c(F)c3F)cc21)N1CC(F)(F)C1` [Example 50, 2-[3-Chloro-6-(2,3,4-trifluorophenyl)pyrrolo[3,2-b]pyridin-1-yl]-1-(3,3-difluoroazetidin-1-yl)ethanone], the IC50 is 39.8 nM.
Still for that read-out and setting: the figure for `Cc1cccc(-c2cnc3cc(C)n(CC(=O)NC4CC4)c3c2)c1` [Example 51, N-Cyclopropyl-2-[2-methyl-6-(m-tolyl)pyrrolo[3,2-b]pyridin-1-yl]acetamide] is 63.1 nM; for `Cc1cc2ncc(-c3ccccc3)cc2n1CC(=O)N1CCOCC1` [Example 52, 2-(2-Methyl-6-phenyl-pyrrolo[3,2-b]pyridin-1-yl)-1-morpholino-ethanone] it is 1260 nM.
